Test system: Mac1+Gr1+ myeloid immunoregulatory cells
Assay: FACS quantitation of Mac1+Gr1+ myeloid suppressor (MySC/MIR) cells in spleen and lymph node of treated mice
Assay type: in vivo, mouse
Settings: for number of Mac1+Gr1+ MySC (MDSC): daily injection at 125 μM for 7 days; for number of MIR cells: daily i.p. injection at 60 μM for 7 days
Protocol: FACS quantitation of Mac1^+Gr1^+ Myeloid-Derived Suppressor Cells (Mac1^+Gr1^+ MySC) (A,B) and FoxP3^+CD4^+CD25^+ Treg cells (C,D) in spleen and lymph node of C57BL6 mice treated with NSC13480, vehicle or non-manipulated mice (Normal). ***p<0.001; *p<0.05.
In addition, both donor and host Treg cells can also limit or abrogate GvHD. […] (Paraiso, K. H., et al. 2007. J Immunol 178:2893). […] Adult mice were treated for 7 days with a daily injection of NSC13480 at 125 μM. The frequency of MySC and Treg cells was tested in the spleens of mice treated with NSC13480, the vehicle used for delivery of NSC 13480 and normal, untreated mice.
Expansion of the Mac1^+Gr1^+ MIR cell compartment can suppress GvHD. [Ghansah T, et al., J Immunol (2004) 173(12):7324-7330; Paraiso K H, et al., J Immunol (2007) 178(5):2893-2900; MacDonald K P, et al., J Immunol (2005) 174(4):1841-1850] Thus, the ability 3α-aminocholestane to expand the MIR compartment in peripheral lymphoid tissues, where GvHD and organ transplant rejection are primed, was tested. Adult mice were treated for 7 days with a daily intraperitoneal (i.p.) injection of 3α-aminocholestane at 60 μM. We then compared the frequency of MIR cells in the spleens and LN of mice treated with 3α-aminocholestane to that of control mice treated with either their respective vehicles or to unmanipulated mice. […] Thus, consistent with the findings in mice genetically ablated for SHIP1 expression during adult physiology [Paraiso K H, et al., J Immunol (2007) 178(5):2893-2900], inhibition of SHIP1 activity in adult mice expands the MIR cell compartment in peripheral lymphoid tissues.
Antibody staining and flow cytometry (Examples 1-6): Anti-CD16/32 was co-incubated with the samples to block Fc receptor binding. Antibodies used for staining included: NK1.1 (PK136); CD3e (145-2C11); Ly49G2 (4D11); Gr-1 (RB6-8C5); Mac-1(M1/70); CD11c (HL3); CD4 (GK1.5); CD25 (PC61) and were obtained from BD Pharmingen (San Jose, Calif.). FoxP3 (FJK-16s) was purchased from eBioScience (San Diego, Calif.). All samples were acquired on a FACSCalibur and analyzed using FlowJo8.7.1. For viable staining, dead cells were excluded from the analysis following cytometer acquisition of data by exclusion of the 7AAD dye. For staining of FoxP3, viable cells were first stained for extacellular markers followed by fixation and permeabilization to stain for the intracellular FoxP3.
Use of SHIP1 inhibitory compounds for in vitro and in vivo studies: For in vitro studies 3α-aminocholestane was suspended in 100% ethanol. […]
Antibody staining and flow cytometry (Examples 7-9): Anti-CD16/32 was incubated with the samples to block Fc receptor binding. […] All samples were acquired on a FACSCalibur and analyzed using FlowJo8.7.1. […]

| SMILES | number of Mac1+Gr1+ MySC (MDSC) (lymph node) | number of Mac1+Gr1+ MySC (MDSC) (spleen) | number of MIR cells (lymph node) | number of MIR cells (spleen) |
| --- | --- | --- | --- | --- |
| OC(c1cc(-c2ccccc2)nc2c1ccc1ccccc12)C1CCCCN1 (stereo not shown) [NSC13480, (2-phenylbenzo[h]quinolin-4-yl)-piperidin-2-ylmethanol] | increased significantly | increased significantly |  |  |
| CC(C)CCC[C@@H](C)[C@H]1CC[C@H]2[C@@H]3CC[C@H]4C[C@H](N)CC[C@]4(C)[C@H]3CC[C@]12C [NSC23922, (3R,5S,8R,9S,10S,13R,14S,17R)-10,13-dimethyl-17-[(2R)-6-methylheptan-2-yl]-2,3,4,5,6,7,8,9,11,12,14,15,16,17-tetradecahydro-1H-cyclopenta[a]phenanthren-3-amine] |  |  | increased significantly | increased significantly |

— US9006221B2, “Method of modulating ship activity” (H. Lee Moffitt Cancer Center and Reserach Institute, Inc., priority 2008, dated 2015)
